Assay [1] relates to Bovine Serum Albumin (BSA). Kind of assay: In vitro protein carbamylation assay (14C-potassium cyanate, BSA). In kind it is biochemical. Particulars: for Degree of carbamylation (% relative to HBSS control): 10 mM nucleophile, 37° C., 72 hours. The procedure:
200 μL of a 0.5% BSA solution, 200 μL of test solution and 100 μL of a 5 μCi/mL ^14C-Potassium Cyanate solution was mixed in an Eppendorf tube (corresponding to a final concentration of 75 μM BSA, 25 μM ^14C-Potassium Cyanate, and 10 mM nucleophile). Samples run in triplicates (n=3). The Eppendorf tubes were incubated at 37° C. for 72 hours (if not otherwise stated).
After incubation a volume of 100 μL of each sample was transferred to a new Eppendorf tube containing 100 μL of a 10% trichloroacetic acid (TCA) and kept at 4° C. overnight (for precipitation of BSA). Subsequently, the precipitated BSA was separated from the buffer by centrifugation (10000 rpm, 30 seconds). The supernatant was removed and the BSA pellet was resuspended in 200 μL of a 10% solution of cold TCA (4° C.). The pellet was recovered by centrifugation (10000 rpm, 30 seconds) and supernatant was discarded. The BSA pellet was resuspended in 100 μL purified water (MilliQ) and transferred to a scintillation vial. The Eppendorf tube (previously containing the BSA pellet) was rinsed with an additional 100 μL purified water which al was transferred to the relevant scintillation vial.

Assay [2] relates to reconstructed human skin (Epiderm Full Thickness). Kind of assay: In vitro protein carbamylation assay using reconstructed human skin (Protein Carbamylation Sandwich ELISA). Type of assay: cell-based. Particulars: 0.5 M urea:isocyanate 99:1 + 200 μL 2% nucleophile solution, apical, six days. The procedure:
Epiderm Full Thickness (Epiderm FT, MatTek Corp., USA) tissues were transferred to B6 trays containing EpiDermTM Full Thickness Maintenance Medium (MatTek Corp., USA) immediately upon arrival and incubated for 24 hours at 37° C. and 5% CO2. […] At day 6, the treatment solutions and the maintenance medium were removed from the tissues, and pre-warmed phosphate buffered saline (DPBS, Sigma-Aldrich) was added and removed twice before the tissues were submitted for ELISA and histological analysis. The 7 different conditions were tested on four different tissues where one tissue from each treatment was submitted for ELISA and the remaining three tissues were submitted for histological analysis. Overview of Treatment Solutions Added to the Apical Compartment • 1. […] The concentration used was selected to resemble the approximate concentration of urea in urine (Liu et. al. 2012). Experimental procedure for protein extraction was modified from Ross-Hansen et al., 2014 and Palosuo et al., 1998. The cell covered […] filters (Mattek) were cut from the plastic insertion ring, and the cell layer gently peeled of the membrane with a scalpel. […] Samples were analysed undiluted in a Protein Carbamylation Sandwich ELISA (Cell Biolabs Inc cat no STA-877).

Assay [3] concerns reconstructed human skin (EpiDermFT). Nature of the assay: Histological analysis (H&E) of reconstructed human skin samples treated with urea:isocyanate. Type of assay: cell-based. Particulars: 0.5 M urea:isocyanate 99:1 + 200 μL 2% nucleophile solution, six days; vs control treated with only urea:isocyanate. The procedure:
Epiderm Full Thickness (Epiderm FT, MatTek Corp., USA) tissues were transferred to B6 trays containing EpiDerm™ Full Thickness Maintenance Medium (MatTek Corp., USA) immediately upon arrival and incubated for 24 hours at 37° C. and 5% CO2. […] At day 6, the treatment solutions and the maintenance medium were removed from the tissues, and pre-warmed phosphate buffered saline (DPBS, Sigma-Aldrich) was added and removed twice before the tissues were submitted for ELISA and histological analysis. The 7 different conditions were tested on four different tissues where one tissue from each treatment was submitted for ELISA and the remaining three tissues were submitted for histological analysis. Overview of Treatment Solutions Added to the Apical Compartment • 1. […] EpiDermFT membranes were app. 1 cm in diameter and were fixed in formalin for 5 days. Membranes were cut into halves using a scissors and placed into histogel matrix aiming at having the cut surface as the tissue sectioning surface. The samples were dehydrated in alcohol and xylene and embedded in paraffin using a standard paraffin embedding procedure. Sections were cut at 4 μm for Hematoxylin and Eosin (H&E) staining and immunohistochemistry (IHC). Images were acquired using a 20× objective with a Zeiss AxioScan. Representative areas were selected for presentation. […]

Setting [4] is: 75 μM BSA, 25 μM 14C-potassium cyanate, n=3.
Setting [5] is: dissolved in HBSS:DMSO 90:10, neutralized by equimolar NaOH before use.
[6] abbreviates: neutralized by equimolar NaOH before use.

Structures can show the parent of a compound that is named as a salt. Peptide text beside a SMILES is read from it.

Consider `CC(=O)N[C@@H](CS)C(=O)O` [Acetylcysteine, reference compound], for which, in assay [1] (setting [4]), the “Degree of carbamylation (% relative to HBSS control)” value worked out at 14.3%. For `Cl.N=C(N)NCCC[C@H](N)C(=O)O` [Arg*HCl], the “Degree of carbamylation (% relative to HBSS control)” value in assay [1] (setting [4]) is recorded as 66.1%. With `COC(=O)[C@H](Cc1ccccc1)NC(=O)[C@@H](N)CC(=O)O` [Aspartame] (HELM PEPTIDE1{D.F.[CO[*:1]]}$$$$V2.0), in assay [1] (setting [4]), the “Degree of carbamylation (% relative to HBSS control)” value is listed as 30.4%. As for `CC(C)C[C@H](NC(=O)[C@@H](O)[C@H](N)Cc1ccccc1)C(=O)O` [Bestatin, reference compound], in assay [1] (setting [4]), the “Degree of carbamylation (% relative to HBSS control)” value is reported as 53.4%. Consider `CC1=NCC[C@@H](C(=O)O)N1` [Ectoine, reference compound], for which the “Degree of carbamylation (% relative to HBSS control)” value in assay [1] (setting [4]) is recorded as 97.9%. The “degree of carbamylation (%) relative to HBSS control, in words” value in assay [1] (text statement referring to Example 3) is listed as “high degree of carbamylation”. `N[C@@H](Cc1c[nH]cn1)C(=O)O` [Histidine]: the “Degree of carbamylation (% relative to HBSS control)” value in assay [1] (setting [4]) is listed as 61.1%. With `CN(C)C(=N)NC(=N)N.Cl` [Metformin*HCl, reference compound], the “Degree of carbamylation (% relative to HBSS control)” value in assay [1] (setting [5]) is given as 71.4%.

Regarding `NCCNCC(=O)O` [N-β-aminoethyl-Gly], in assay [1] (setting [4]), the “Degree of carbamylation (% relative to HBSS control)” value is 29.7%.

Turning to `N=C(N)c1ccc(OCCCCCOc2ccc(C(=N)N)cc2)cc1` [Pentamidine diisethionate, reference compound], the “Degree of carbamylation (% relative to HBSS control)” value in assay [1] (setting [6]) is recorded as 43.1%.

With `NNCCc1ccccc1` [Phenelzine sulfate, reference compound], in assay [1] (setting [6]), the “Degree of carbamylation (% relative to HBSS control)” value is reported as 9.8%. As to `CC(N)C12CC3CC(CC(C3)C1)C2.Cl` (stereo not drawn) [Rimantadine*HCl, reference compound], the “Degree of carbamylation (% relative to HBSS control)” value in assay [1] (setting [5]) is recorded as 78.5%.

Turning to `N[C@@H](CC(=O)N1CCn2c(nnc2C(F)(F)F)C1)Cc1cc(F)c(F)cc1F` [Sitagliptin], the “inhibition of protein carbamylation (ELISA, FIG. 2)” value in assay [2] was “did not show complete inhibition”. In assay [3], the “attachment of epidermis / reduction of skin damage (H&E, FIG. 3)” value is recorded as “least effect”. For the compound Ala-Gln, the “Degree of carbamylation (% relative to HBSS control)” value in assay [1] (setting [4]) stood at 34.8%.

In the case of Ala-Glu, the “Degree of carbamylation (% relative to HBSS control)” value in assay [1] (setting [4]) came out at 20.4%. In the case of Arg, the “Degree of carbamylation (% relative to HBSS control)” value in assay [1] (setting [4]) is recorded as 52.4%. With Gly-Gly, the “Degree of carbamylation (% relative to HBSS control)” value in assay [1] (setting [4]) is on record as 26.6%. Same read-out and setting: for Gly-His the value was 22.6%; for Gly-Ser, 33.1%; for Ile-Pro, 41.4%. As for Lys-Pro, the “Degree of carbamylation (% relative to HBSS control)” value in assay [1] (setting [4]) is listed as 28.6%.

Regarding Pro-Ser, in assay [1] (setting [4]), the “Degree of carbamylation (% relative to HBSS control)” value is on record as 41.9%. Ser-Pro: in assay [1] (setting [4]), the “Degree of carbamylation (% relative to HBSS control)” value was found to be 26.4%. For “Sitagliptine phosphate [reference compound]”, the “Degree of carbamylation (% relative to HBSS control)” value in assay [1] (setting [6]) came out at 48.6%. Consider Tetraglycine, for which the “Degree of carbamylation (% relative to HBSS control)” value in assay [1] (setting [4]) is given as 24.9%. Take Tyr-Ala: in assay [1] (setting [4]), the “Degree of carbamylation (% relative to HBSS control)” value turned out to be 26.1%.

In the case of Tyr-Pro, the “Degree of carbamylation (% relative to HBSS control)” value in assay [1] (setting [4]) came out at 32.8%. Same read-out and setting: as for Val-Pro, the figure is 22.1%.

Turning to Val-Tyr, in assay [1] (setting [4]), the “Degree of carbamylation (% relative to HBSS control)” value is given as 28.9%.

Source of the values: patent publication US20230414699A1, “TREATMENT OF DERMATOLOGICAL CONDITIONS” (MC2 Therapeutics Ltd, priority 2020, published 2023).
